In patent publication US20250041277A1, “METHODS AND DOSING REGIMENS COMPRISING A CDK2 INHIBITOR AND A CDK4 INHIBITOR FOR TREATING CANCER” (PFIZER INC., priority 2021, published 2025):

Legend:
[1] = test system: NCIH1944; test: Combinatorial activity in LUAD cell line NCIH1944; type: cell-based; conditions: Homo sapiens, NCI-H1944; NCIH1944, KRAS G13D; single agent; read-out: (nM) s.a.
Experimental: (§1) Combinatorial activity of PF-07104091 and PF-07220060 was assessed in LUADs as single agents (s.a.) or in combination.

[2] = test system: NCI-2291; test: Combinatorial activity in LUAD cell line NCI-2291; type: cell-based; conditions: NCI-2291, KRAS G12C/F/V; single agent; read-out: (nM) s.a.
Experimental: as §1

[3] = test system: NCIH2228 (RB mut); test: Combinatorial activity in LUAD cell line NCIH2228; type: cell-based; conditions: Homo sapiens, NCI-H2228, WT, single agent, read-out: (nM) s.a.
Experimental: as §1

[4] = test system: MCF7 breast cancer cell line; test: Cell proliferation combination assay (Loewe Volume, CI), MCF7; type: cell-based, Human; conditions: MCF7 cells; for Best CI: Best CI Level 70
Experimental: The combination effects of PF-07104091 and PF-07220060 were evaluated in a cell proliferation assay with MCF7 and T47D BC cell lines.
Drug combinations were analyzed using the Dose Equivalence Principle, and the Loewe Volume score. When modeling synergy using the Dose Equivalence Principle, the Loewe Volume score for the combination compounds should be greater than the compound self-cross controls, and the Combination Index (C) score for the combination compounds should be less than compound self-cross controls. […] The isobolograms set to an anti-proliferation threshold at 70% confirmed a synergistic response.

[5] = test system: NCIH2126; test: Combinatorial activity in LUAD cell line NCIH2126; type: cell-based; conditions: Homo sapiens, NCI-H2126; NCIH2126, WT; single agent; read-out: (nM) s.a.
Experimental: as §1

[6] = test system: ST941 PBR PDX model; test: In vivo efficacy, palbociclib-resistant ST941 PBR PDX model (Example 4); design: species or system NSG mice; conditions: ST941PBR, Day 28; PO BID: PF-07104091 120 mpk, PF-07220060 60 mpk, PF-06873600 30 mpk, palbociclib 10 mpk; fulvestrant 10 mpk SC
Experimental: (§2) Female NSG mice (Jackson Lab) were subcutaneously implanted with fragment (27 mm^3 to 64 mm^3 size) into the dorsal region. All mice for HCC1428, MCF7 and ST941 PBR studies were supplemented with 8.5 μg/mL estradiol water (β-Estradiol Sigma-Aldrich, cat #E2758-5G) and gave ad libitum till end of study. For the in vivo efficacy studies, tumor volume and body weights were measured twice a week. Tumor volume was calculated using the [(Length×Width×Width)/2)] formula. TGI was calculated as 100*(1−ΔT/ΔC). The ΔC (ΔT) was obtained by subtracting the mean tumor burden in the vehicle (treated) group on the first day of treatment (Day 0) from the mean tumor burden in vehicle (treated) group on the assessment day. Statistical analysis was performed using ANCOVA when the mean tumor volume in vehicle treated mice reached tumor cutoff size.
We established model in house by continuous treatment of the ST941 PBR tumor bearing mice with PD-0332991 at 50 mg/kg, PO QD plus fulvestrant at 10 mg/kg, SC twice in the first week, then weekly thereafter. To propagate donors for the TGI study, tumors were transplanted to recipient mice. One week after the re-implantation, the recipient mice received continuous treatment with palbociclib plus fulvestrant (dosing schedule described above). After 1 to 2 serial in vivo propagation with the same treatment regimen, the resistant tumors in the range of 700 to 800 mm^3 were re-implanted for a study expansion. The remaining tumor fragments were viably frozen for future use.
The live donor mice were established by implanting ST941 PBR (p13) tumor fragments. Once reaching a range of 700 to 800 mm^3, the donor tumors were subsequently transplanted into secondary recipient mice for a study expansion. To maintain the resistant clones, the ST941 PBR tumor bearing mice were treated with PD-0332991 at 50 mg/kg, PO. QD plus fulvestrant at 10 mg/kg, SC twice in the first week, then weekly afterwards for 10 weeks. The treatment was initiated one week after the implant until day of randomization for study enrollment. […] PF-07104091 (lot 021), PF-07220060 (lot CPo126812-01-SY-5700-01), PF-06873600 (lot 022) and PD-0332991 (lot GR08498) were administered (PO) BID (7 hr apart) while fulvestrant (lot 20160224-2) at 10 mg/kg, SC twice in the first week, then weekly afterwards. All mice received treatment continuously until Day 28. TGI was assessed on Day 28 post first dose.

[7] = test system: MCF7 breast cancer model; test: In vivo efficacy, HR+/HER2− MCF7 breast cancer model (Example 4); design: species or system NSG mice; conditions: MCF7, Day 29; PO BID: PF-07104091 120 mpk, PF-07220060 60 mpk, PF-06873600 30 mpk, palbociclib 10 mpk; fulvestrant 10 mpk SC
Experimental: as §2
The MCF7 model was established by implanting donor tumor fragments into recipient mice. To establish the MCF7 donor mice, tumor cells (5×10^6 cell/mouse with 50% Cultrex® Basement Membrane Matrix) were subcutaneously implanted in female NSG mice. Once reaching a range of 700 to 800 mm^3, donor tumors were subsequently transplanted into secondary recipient mice for a study expansion. […] PF-07104091 (lot 022), PF-07220060 (lot CPo126812-01-SY-5700-01), PF-06873600 (lot 022) and PD-0332991 (lot GR08498) were administered (PO) BID (7 hr apart) while fulvestrant (lot 20160224-2) at 10 mg/kg, SC twice in the first week, then weekly afterwards. All mice received treatment continuously until Day 29. TGI was assessed on Day 29 post first dose

IC50 [1] [nM]	IC50 [3] [nM]	IC50 [5] [nM]	Compound	IC50 [2] [nM]	Loewe Volume [4]	Best CI [4]	TGI % [6] [%]	TGI % [7] [%]
398	839	255	CC(C)n1c(C(C)(C)O)nc2c(F)cc(-c3nc(N[C@@H]4CCOC[C@H]4O)ncc3Cl)cc21 [PF-07220060, 1,5-anhydro-3-({5-chloro-4-[4-fluoro-2-(2-hydroxypropan-2-yl)-1-(propan-2-yl)-1H-benzimidazol-6-yl]pyrimidin-2-yl}amino)-2,3-dideoxy-D-threo-pentitol]	138	−0.02	1.06	19	79
227	~1000	372	COCc1cc(C(=O)Nc2cc([C@H]3CC[C@@H](OC(=O)NC(C)C)C3)[nH]n2)n(C)n1 [PF-07104091, (1R,3S)-3-[3-({[3-(methoxymethyl)-1-methyl-1H-pyrazol-5-yl]carbonyl}amino)-1H-pyrazol-5-yl]cyclopentyl propan-2-ylcarbamate]	~1200	−0.08	1.04	36	60
